Test results reported in patent publication US12486229B2, “Indole derivative and application thereof” (SHANGHAI MEDICILON INC., priority 2020, dated 2025).

Tested on: TNBS induced ulcerative colitis in rats
Assay: TNBS induced ulcerative colitis in rats
Assay type: in vivo, rat
Conditions: for Colon length / Colon weight / Colon weight/colon length / Ulcer area: 3 mg/kg oral gavage once a day for 7 days, day 8; for General anatomical view of colon, from excellent to poor: 7 days administration, SASP 360, Example 3 and Etrasimod 3, Ozanimod 10 mg/kg; for Weight: 3 mg/kg oral gavage once a day; for Drug efficacy intensity (colon weight): oral gavage for 7 consecutive days, doses as given in ranking
Description: Preparation of molding agent: 5 mL TNBS and 8.953 mL anhydrous ethanol and 26.741 sterilized water for injection. • TNBS comes from Dalian Meilun Biotechnology Co., Ltd. • Source of SPF male SD rats: Shanghai Slake Experimental Animal Co., Ltd. • Animal age at the beginning of the experiment: 8 to 10 weeks; • Animal weight at the beginning of the experiment: about 250 g; • Adaptation time: 5 to 7 days; • Animals were fasted (only water) for 24 hours. After inhalation anesthesia with isoflurane, all rats were perfused with 0.5 mL TNBS ethanol solution per rat (18 mg TNBS/rat) via rectum with latex hose, with the length of the hose entering the rectum of about 8 cm. After withdrawing the hose, the rats remained under isoflurane anesthesia, and kept in the inclined state of hip elevation for 15 minutes.
The rats after modeling were randomly divided into 5 groups: model group, positive control group using drug sulfasalazine (SASP, 360 mg/kg), test substance group using the compound of Example 3 (3 mg/kg), test substance group using Etrasimod (3 mg/kg), test substance group using Ozanimod (10 mg/kg).
At 3 hours after modeling, the animals in each group were administrated with medicine solution by oral gavage (Table 1), 5 mL/kg body weight (10 mL/kg in sulfasalazine group), once a day, for 7 consecutive days, and the feces of the animals and whether there is death were observed every day. On the 8th day, the animals were killed under CO2 overdose anesthesia followed by being dissected, the entire colon tissue was extracted, the contents of the colon were cleaned after longitudinal dissection along the mesenteric side, the colon was weighed and measured for its length, the area of the ulcer was measured, and the general situation was observed and photos were taken. Finally, the colon was fixed in 10% formalin, and H&E staining and histopathological analysis (inflammation, goblet cells, lesion depth, ulcer degree, crypt abscess) were performed.
Wherein, the compound of Example 3 of the invention, purity: 99.74%. • Etrasimod, prepared according to the literature method (the second isomer of Example 1.29 in WO2010/011316A1), purity: 98.47%. • Ozanimod, prepared according to the literature method (compound 86 in WO2011/060392A1), purity: 99.78%. • Sulfasalazine enteric-coated tablets, produced by Shanghai Fuda Pharmaceutical Co., Ltd., 0.25 g/tablet. Enteric coated tablets show yellow to brownish yellow after the coating is removed. • Solutol: Beijing Fengli Jingqiu Pharmaceutical Co., Ltd. • Solvent preparation: • DMSO, Solutol and 0.9% sodium chloride solution were mixed according to the volume ratio of 5:10:85 to prepare the solvent.
Preparation of compound of Example 3 and Etrasimod solution: 27 mg of test substances were taken respectively and dissolved in 45 mL of solvent to obtain corresponding test substance solution.
Ozanimod: 90 mg Ozanimod was dissolved in 45 mL solvent to obtain Ozanimod solution.
Preparation of SASP solution: six sulfasalazine enteric-coated tablets after grinding were added to 41.7 mL 0.5% CMC-Na, and then dissolved by ultrasonic to obtain SASP solution.
Due to the excipient factor of SASP drug preparation, the concentration should not be too high when suspended in 0.5% CMC-Na, otherwise the suspension was uneven and the mobility was poor, so the dose volume of SASP was doubled compared with the compound of Example 3 and Etrasimod.

SMILES | Colon length | Colon weight | Colon weight/colon length | Ulcer area | General anatomical view of colon, from excellent to poor | Weight (Day 1) | Weight (Day 2) | Weight (Day 3) | Weight (Day 4) | Weight (Day 5) | Weight (Day 6) | Weight (Day 7) | Weight (Day 8) | Weight course compared with model group (SASP 360 mg/kg, Example 3 and Etrasimod 3 mg/kg, oral once a day) | Drug efficacy intensity (colon weight)
O=C(O)CCn1ccc2cc(OCc3ccc(C4CCCC4)c(C(F)(F)F)c3)cc(Cl)c21 [Compound of Example 3, 3-(7-chlorine-5-((4-cyclopentyl-3-(trifluoromethyl)benzyl)oxy)-1H-indole-1-yl)propionic acid] | 13.66 ± 0.63 cm | 2.07 ± 0.17 g | 0.15 g/cm | 53.87 ± 24.01 mm^2 | group using compound of Example 3>group using sulfasalazine>group using Etrasimod>group using Ozanimod | 247 ± 0.55 g | 224.6 ± 0.51 g | 226.3 ± 0.85 g | 233.6 ± 1.45 g | 238.5 ± 1.57 g | 245 ± 1.74 g | 258.8 ± 1.61 g | 267.9 ± 1.44 g | a certain tendency to inhibit the weight loss | group using the compound of Example 3 (3 mg/kg)>group using Etrasimod (3 mg/kg)>group using sulfasalazine (360 mg/kg)>model group>group using Ozanimod (10 mg/kg)
O=C(O)C[C@H]1CCc2c1[nH]c1ccc(OCc3ccc(C4CCCC4)c(C(F)(F)F)c3)cc21 [Etrasimod, reference compound] | 13.56 ± 0.54 cm | 2.54 ± 0.25 g | 0.19 g/cm | 177.97 ± 56.5 mm^2 | group using compound of Example 3>group using sulfasalazine>group using Etrasimod>group using Ozanimod | 251.6 ± 0.5 g | 225.5 ± 0.56 g | 223.9 ± 0.94 g | 221.8 ± 1.51 g | 224.4 ± 1.73 g | 230.1 ± 2.04 g | 245.5 ± 1.85 g | 255.8 ± 1.6 g | – | group using the compound of Example 3 (3 mg/kg)>group using Etrasimod (3 mg/kg)>group using sulfasalazine (360 mg/kg)>model group>group using Ozanimod (10 mg/kg)
